Source: US20160045505A1, “COMPOUNDS AND COMPOSITIONS FOR THE TREATMENT OF PARASITIC DISEASES” (NOVARTIS AG, priority 2013, published 2016)
Read-outs that look alike come from different tables or passages of the source.

Tests used:
[1] = tested on: L. donovani HU3 strain in mouse peritoneal macrophages; assay: Assay for proliferation of Leishmania parasites in infected mouse peritoneal macrophages (SybrGreen staining, high-content imaging, 5 days); format: cell-based, Leishmania donovani; conditions: Leishmania donovani, Peritoneal macrophage, L. donovani in mouse peritoneal macrophages, read-out: L. donovani Macrophage EC50
[2] = tested on: Trypanosoma brucei Lister 427 strain, bloodstream form; assay: Assay for proliferation of kinetoplastid parasite Trypanosoma brucei (Cell Titer Glo, 48 hours); format: cell-based; conditions: Trypanosoma brucei, T. brucei Lister 427 bloodstream form, read-out: T. brucei EC50
In short: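 Bloodstream-form T. brucei Lister 427 in HMI-9 medium was exposed to compound (DMSO vehicle) for 48 hours at 37° C, 5% CO2. Parasite growth was read as ATP by CellTiter-Glo luminescence, with EC50 calculated from percent inhibition.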

[3] = tested on: Leishmania donovani axenic amastigote parasites; assay: Leishmania donovani axenic amastigote proliferation assay (Cell TiterGlo luminescence, 2 day incubation); format: cell-based; conditions: Leishmania donovani, read-out: L. donovani amastigotes EC50
[4] = tested on: Trypanosoma cruzi amastigotes (Tulahuen strain expressing Lac-Z) cultured in 3T3 fibroblast cells; assay: microbe, parasite or virus in culture; format: cell-based; conditions: Trypanosoma cruzi, TULAHUEN, Fibroblast
[5] = T. cruzi amastigotes in 3T3 fibroblast cells, read-out: T cruzi EC50
[6] = axenic amastigotes, inhibition of proliferation
[7] = T. cruzi amastigotes in 3T3 fibroblast cells, inhibition of proliferation, read-out: T cruzi EC50

| SMILES | EC50 [1] [nM] | EC50 [2] [nM] | EC50 ([3]; L. donovani axenic amastigotes) [nM] | EC50 [4, 5] [µM] | EC50 ([1]; inhibition of proliferation) [nM] | EC50 ([2]; inhibition of proliferation) [nM] | EC50 [3, 6] [nM] | EC50 [4, 7] [µM] | EC50 ([4]; read-out: T cruzi EC50 (μM)) [µM] |
| --- | --- | --- | --- | --- | --- | --- | --- | --- | --- |
| Cc1nc(C)c(C(=O)Nc2ccc(F)c(-c3cn4cc(-c5cncc(F)c5)cnc4n3)c2)o1 [Compound 443] | 146 | 34 | 81 | 0.103 | – | – | – | – | – |
| Cc1ncc(C(=O)Nc2ccc(F)c(-c3cn4cc(-c5ccccn5)cnc4n3)c2)o1 [Compound 198] | – | – | – | – | 16 | 18 | 7 | 0.016 | – |
| CC(C)OC(=O)Nc1cnc2nc(-c3cc(NC(=O)N4C(C)CCC4C)ccc3Cl)cn2c1 (stereo not shown) [Compound 270] | – | – | – | – | 2200 | 4110 | 2900 | 0.701 | – |
| Cc1nc(C)c(C(=O)Nc2ccc(F)c(-c3cn4cc(C5=CCN(Cc6ccccc6)CC5)cnc4n3)c2)o1 [Compound 378] | 134 | 38 | 543 | 0.047 | – | – | – | – | – |
| Cc1nc(C)c(C(=O)Nc2ccc(F)c(-c3cn4cc(-c5cncc(C(C)C)c5)cnc4n3)c2)o1 [Compound 438] | 282 | 109 | 141 | 0.146 | – | – | – | – | – |
| Cc1nc(C)c(C(=O)Nc2ccc(F)c(-c3cn4cc(-c5cn[nH]c5)cnc4n3)c2)o1 [Compound 386] | > 50000 | 1550 | 1500 | > 20 | – | – | – | – | – |
| CCN(C)C(=O)Nc1ccc(F)c(-c2cn3cc(C4=CCOCC4)cnc3n2)c1 [Compound 328] | – | – | – | – | 1500 | 167 | 387 | 0.302 | – |
| CC(C)OC(=O)Nc1cnc2nc(-c3cc(NC(=O)c4cnc(C5CC5)o4)ccc3Cl)cn2c1 [Compound 60] | – | – | – | – | 1100 | 1540 | 727 | 0.444 | – |
| Cc1nc(C)c(C(=O)Nc2ccc(F)c(-c3cn4cc(C#CCCN5CCN(C)CC5)cnc4n3)c2)o1 [Compound 546] | 30200 | 3180 | 5660 | 3.85 | – | – | – | – | – |
| Cc1nc(C)c(C(=O)Nc2ccc(F)c(-c3cn4cc(OCc5ccccn5)cnc4n3)c2)o1 [Compound 611] | 1550 | 611 | 645 | 1.13 | – | – | – | – | – |
| CC(C)OC(=O)Nc1cnc2nc(-c3cc(NC(=O)N4CCC5(C4)CC5(F)F)ccc3Cl)cn2c1 (stereo not shown) [Compound 261] | – | – | – | – | 7030 | 1220 | 4320 | 1.9 | – |
| CC(C)OC(=O)Nc1cnc2nc(-c3cc(NC(=O)N4CC[C@@H](F)C4)ccc3F)cn2c1 [Compound 229] | – | – | – | – | 2820 | 776 | 884 | 11 | – |
| O=C(Nc1ccc(F)c(-c2cn3cc(-c4cccnc4)cnc3n2)c1)N1CCC1 [Compound 405] | 361 | 13 | 94 | 0.271 | – | – | – | – | – |
| CC(C)OC(=O)Nc1cnc2nc(-c3cc(NC4=NCCO4)ccc3F)cn2c1 [Compound 499] | 8260 | 4670 | > 25000 | 9.42 | – | – | – | – | – |
| Cc1ncc(C(=O)Nc2ccc(F)c(-c3cn4cc(-c5cccnc5)cnc4n3)c2)o1 [Compound 398] | 424 | 317 | 186 | 0.572 | – | – | – | – | – |
| Cc1cccc(-c2cnc3nc(-c4cc(NC(=O)c5oc(C)nc5C)ccc4F)cn3c2)n1 [Compound 376] | 256 | 158 | 85 | 0.096 | – | – | – | – | – |
| CC(C)OC(=O)N(C)c1cnc2nc(-c3cc(NC(=O)c4ccco4)ccc3Cl)cn2c1 [Compound 561, isopropyl (2-(2-chloro-5-(furan-2-carboxamido)phenyl)imidazo[1,2-a]pyrimidin-6-yl)(methyl)carbamate] | 2140 | 286 | 740 | 0.139 | – | – | – | – | – |
| Cc1nc(C)c(C(=O)Nc2ccc(F)c(-c3cn4cc(NC(=O)[C@H]5[C@@H](N)[C@@H]6C=C[C@H]5C6)cnc4n3)c2)o1 [Compound 181] | – | – | – | – | 33100 | 12700 | > 25000 | > 20 | – |
| CC(C)OC(=O)Nc1cnc2nc(-c3cc(NC(=O)N4CCNC4=O)ccc3Cl)cn2c1 [Compound 217] | – | – | – | – | > 50000 | > 50000 | > 25000 | 7.06 | – |
| CO[C@@H]1CCN(C(=O)Nc2ccc(Cl)c(-c3cn4cc(NC(=O)OC(C)C)cnc4n3)c2)C1 [Compound 265] | – | – | – | – | 4260 | 1550 | 978 | 3.93 | – |
| Cc1ncc(C(=O)Nc2ccc(F)c(-c3cn4cc(NC(C)C)cnc4n3)c2)o1 [Compound 462] | 403 | 129 | 174 | 0.151 | – | – | – | – | – |
| CC(C)OC(=O)Nc1cnc2nc(-c3cc(NC(=O)c4ccc(Cl)s4)ccc3F)cn2c1 [Compound 66] | – | – | – | – | 16100 | 1840 | 2810 | 0.444 | – |

| SMILES | EC50 [1] [nM] | EC50 [2] [nM] | EC50 ([3]; L. donovani axenic amastigotes) [nM] | EC50 [4, 5] [µM] | EC50 ([1]; inhibition of proliferation) [nM] | EC50 ([2]; inhibition of proliferation) [nM] | EC50 [3, 6] [nM] | EC50 [4, 7] [µM] | EC50 ([4]; read-out: T cruzi EC50 (μM)) [µM] |
| --- | --- | --- | --- | --- | --- | --- | --- | --- | --- |
| O=C(Nc1ccc(F)c(-c2cn3cc(C4CC4)cnc3n2)c1)N1CC[C@@H](F)C1 [Compound 605] | 59 | 13 | 21 | 0.016 | – | – | – | – | – |
| Cc1nc(C)c(C(=O)Nc2ccc(F)c(-c3cn4cc(-c5ccc(N6CCN(C(C)C)CC6)cc5)cnc4n3)c2)o1 [Compound 382] | 10700 | 2600 | 3880 | 1.39 | – | – | – | – | – |
| Cc1nc(C)c(C(=O)Nc2ccc(F)c(-c3cn4cc(-c5c(C)noc5C)cnc4n3)c2)o1 [Compound 366] | – | – | – | – | 339 | 338 | 849 | 0.443 | – |
| CC(C)OC(=O)Nc1cnc2nc(-c3cc(NC(=O)N4CC[C@H](F)C4)ccc3Cl)cn2c1 [Compound 264] | – | – | – | – | > 14000 | 4310 | 4750 | 4.72 | – |
| Cc1nc(C)c(C(=O)Nc2ccc(F)c(-c3cn4cc(NC(=O)C5(C)CCCCO5)cnc4n3)c2)o1 (stereo not shown) [Compound 170] | – | – | – | – | 887 | 518 | 428 | 1.16 | – |
| Cc1nc(C)c(C(=O)Nc2ccc(F)c(-c3cn4cc(C#CCCN5CCCC(O)C5)cnc4n3)c2)o1 (stereo not shown) [Compound 545] | 2130 | 3250 | 3900 | 7.18 | – | – | – | – | – |
| Cc1nc(C)c(C(=O)Nc2ccc(F)c(-c3cn4cc(-c5ccccc5N)cnc4n3)c2)o1 [Compound 372] | 242 | 80 | 221 | 0.095 | – | – | – | – | – |
| COCCOC(=O)Nc1cnc2nc(-c3cc(NC(=O)c4oc(C)nc4C)ccc3F)cn2c1 [Compound 304] | – | – | – | – | 10500 | 1420 | 539 | 2.37 | – |
| O=C(Nc1ccc(Cl)c(-c2cn3cc(N4CCCC4)cnc3n2)c1)N1CCCC1 [Compound 495] | 233 | 36 | 235 | 0.055 | – | – | – | – | – |
| CC(C)c1cnc2nc(-c3cc(NC(=O)N(C)C)ccc3F)cn2c1 [Compound 417] | 1300 | 145 | 250 | 0.135 | – | – | – | – | – |
| O=C(Nc1cnc2nc(-c3cc(NC(=O)N4CCCC4)ccc3F)cn2c1)[C@@H]1CCCO1 [Compound 135] | – | – | – | – | 3130 | 106 | 255 | 3.79 | – |
| Cc1nc(C)c(C(=O)Nc2ccc(F)c(-c3cn4cc(NC(=O)[C@H]5CCCO5)cnc4n3)c2)o1 [Compound 164] | – | – | – | – | 913 | 196 | 280 | 1.99 | – |
| Cc1nc(C)c(C(=O)Nc2ccc(F)c(-c3cn4cc(-c5ccc(NC(C)C)cc5)cnc4n3)c2)o1 [Compound 380] | 33900 | 30700 | 24500 | 14.1 | – | – | – | – | – |
| Cc1nc(C)c(C(=O)Nc2ccc(F)c(-c3cn4cc(NC(=O)c5ccc(OCCN6CCN(C)CC6)cc5)cnc4n3)c2)o1 [Compound 175] | – | – | – | – | 12600 | 4480 | > 25000 | > 20 | – |
| Cc1nc(C)c(C(=O)Nc2ccc(F)c(-c3cn4cc(-c5ccc(F)cn5)cnc4n3)c2)o1 [Compound 431] | 845 | 149 | 79 | 0.046 | – | – | – | – | – |
| Cc1nc(C)c(C(=O)Nc2ccc(F)c(-c3cn4cc(NC(=O)C5CNCCO5)cnc4n3)c2)o1 (stereo not shown) [Compound 179] | – | – | – | – | > 45800 | 6960 | > 25000 | > 20 | – |
| CNCCc1ccc(-c2cnc3nc(-c4cc(NC(=O)c5oc(C)nc5C)ccc4F)cn3c2)cc1 [Compound 451] | 1930 | 968 | 6470 | 1.95 | – | – | – | – | – |
| CCN(C)C(=O)Nc1ccc(F)c(-c2cn3cc(-c4ccccn4)cnc3n2)c1 [Compound 381] | 1440 | 482 | 392 | 0.445 | – | – | – | – | – |
| CCC(C)OC(=O)Nc1cnc2nc(-c3cc(NC(=O)c4oc(C)nc4C)ccc3F)cn2c1 (stereo not shown) [Compound 309] | – | – | – | – | 204 | 132 | 109 | 0.275 | – |
| CC(C)OC(=O)Nc1cnc2nc(-c3cc(NCC(=O)N4CCCC4)ccc3F)cn2c1 [Compound 560] | 29700 | 5650 | 9840 | – | – | – | – | – | 12.1 |
| O=C(Nc1cnc2nc(-c3cc(NC(=O)N4CCCC4)ccc3F)cn2c1)C1CCCCO1 (stereo not shown) [Compound 129] | – | – | – | – | 1260 | 123 | 435 | 1.34 | – |
